Data from patent publication US4202891A, “15-Oxygenated sterol compounds and the use of such compounds to inhibit the biosynthesis of sterols” (priority 1977, dated 1980).
Like-named read-outs stand apart in the source and are kept apart here.

Experiments:
[1] = test system: sterol biosynthesis in L cells; settings: cited from earlier work; for inhibitory action on the synthesis of sterols (in words): L cells in culture
[2] = test system: sterol biosynthesis in primary cultures of mouse liver cells; settings: cited from earlier work; for inhibitory action on the synthesis of sterols (in words): primary cultures of mouse liver cells
plasma cholesterol = settings: cited from earlier work
serum cholesterol = experiment: Effect on serum cholesterol levels in rats, daily subcutaneous injection (Examples 41, 42); type: in vivo, rat (male, Sprague-Dawley); settings: for Serum Cholesterol (Mean ± S.E.M.): 5 mg s.c. once a day in triolein; for decrease in serum cholesterol levels (in words) / % Reduction of serum cholesterol (Mean ± S.E.M.): 5 mg s.c. once a day; for decrease in serum cholesterol levels (in words): after 3, 6, 9, 12 days vs same rats before, after 12 days vs triolein; for % Reduction of serum cholesterol (Mean ± S.E.M.): from initial levels in same rats
Experimental: Male rats of the Sprague-Dawley strain were fed Purina rat chow ad libidum. The rats were maintained on a light (7 A.M.-6 P.M.) -dark (6 P.M.-7 A.M.) cycle throughout the study and for a period of at least 4 days prior to the initiation of the study.
(§1) 3β-Hexadecanoyloxy-5α-cholest-8(14)-en-15-one (5 mg; dissolved in 0.25 ml of triolein), hereafter referred to as the "palmitate ester", or 3β-hemisuccinoyloxy-5α-cholest-8(14)-en-15-one (5 mg; suspended in 0.25 ml of triolein through the use of a tight-fitting all-glass homogenizer), hereafter referred to as the "hemisuccinate ester", were administered subcutaneously once a day at about 12 P.M. to each of eight and six rats, respectively. Control animals (8) received daily injections of triolein (0.25 ml).
Blood samples were taken from the rats periodically and the serum cholesterol concentrations measured, in duplicate, by the method of Abell et al., J. Biol. Chem., Vol. 195, pp. 357-366 ([…]).
Following generally the procedure described in Example 41, 3β-Ethoxy-14α-ethyl-5α-cholest-7-en-15-one (5 mg) in triolein (0.25 ml) was administered subcutaneously once a day to each of eight rats. Control animals (8) received daily injections of triolein (0.25 ml).
Similarly, 5α-cholest-8(14)-en-3β-ol-15-one (2mg) in (0.2 ml) olive oil or 5.0 mg in 0.5 ml of olive oil) was administered subcutaneously once a day to each of a group of rats. The 2 mg dose was administered to 12 rats, while a like number of rats received daily injections of 0.2 ml olive oil. 5 mg doses were administered to each of 6 rats, while 6 control animals received daily injections of 0.5 ml olive oil. The rats used in this study initially weighed between 110 and 190 grams.

[3] = type: in vivo, rat (male, Sprague-Dawley); settings: for average percentage weight gain (mean±S.E.M.): 5 mg s.c. once a day, total experimental period; for differences in growth versus vehicle-treated rats (in words): daily s.c.
Experimental: as §1
The average percentage weight gain over the total experimental period in the palmitate, hemisuccinate, and triolein groups were (mean±S.E.M.) 40.5±4.6, 40.7±1.6, and 43.6±3.3, respectively.

liver = type: in vivo, rat (male, Sprague-Dawley); settings: 5 mg s.c. once a day
Experimental: as §1
The mean values of the liver weights of the triolein-treated rats (9.6 g±0.08, S.E.M.). S.E. differed from those of the palmitate ester-treated rats (11.4 g±0.5, S.E.M.). Similarly, the mean value of the liver weights, when expressed as a percentage of the total body weight, of the triolein-treated rats (4.09%±0.08, S.E.M.) differed from the mean value for the palmitate ester-treated rats (4.53%±0.09, S.E.M.).

[4] = test system: sterol biosynthesis in L cells; experiment: Inhibition of sterol synthesis from [1-14C]acetate in L cell cultures; type: cell-based; settings: Mus musculus; L cell cultures; read-out: Concentrations Required for 50% Inhibition of Sterol Synthesis
Experimental: The effect of various 15-oxygenated sterols on sterol biosynthesis in L cells and in primary cultures of mouse liver cells was tested essentially under conditions described in detail previously [A. A. Kandutsch and H. W. Chen, J. Biol. Chem., Vol. 248, pp. 8408-8417 (1973) and A. A. Kandutsch and H. W. Chen, J. Biol. Chem., Vol. 249, pp. 6057-6061 (1974`)].
(§2) The primary liver cell cultures were prepared from 16-day-old (C57BL/6J fetuses and grown in chemically defined medium (serum-free) as described in the above cited publications. The L cells, a subline of NCTC clone 929 mouse fibroblasts, were grown in chemically defined medium (serum-free) as described in the publications. These L cells are transformed fibroblasts which are regarded as malignant since they will grow as tumors if injected into the mouse strain from which they were initially obtained.
(§3) The preparation of steroid-containing media, procedures for assays of the conversion of [1-^14 C]acetate into digitonin-precipitable sterols, fatty acids, and CO2 and methods for the measurement of DNA, protein, and HMG-CoA reductase were as described in the published articles. L cell cultures were preincubated with the 15-oxygenated sterols and their derivatives for 4 hours, then [1-^14 C]acetate was added at a concentration of 4 μmoles per ml (4 μCi per ml); or the L cell cultures were incubated for 5 hours with the 15-oxygenated sterols before they were harvested for determination of microsomal HMG-CoA reductase activity.
The test compounds were tested over a range of at least 4 concentrations and the assay was repeated until the concentration of test compound required to produce 50% inhibition was located on the steeply declining portion of an activity vs. concentration plot. To diminish any possible effects of generalized differences in cellular metabolism, the rates of sterol synthesis from [1-^14 C]acetate were calculated as the ratio of [^14 C]sterols to [^14 C]fatty acids as described in the two cited articles by Kandutsch and Chen.

HMG-CoA reductase = experiment: Reduction of the activity of HMG-CoA reductase in L cell cultures; type: cell-based, mouse; settings: read-out: Concentrations Required for 50% Reduction of the Activity of HMG-CoA Reductase
Experimental: as §2, §3
A number of the 15-oxygenated sterols have also been tested with respect to their effects on the activity and/or levels of the enzyme HMG-CoA reductase (3-hydroxy-3-methylglutaryl coenzyme A reductase) in the L cells and in the liver cells. As noted previously, this enzyme catalyzes the reduction of 3-hydroxy-3-methylglutaryl coenzyme A to yield mevalonic acid, an essential intermediate in the biosynthesis of sterols and of a number of other essential compounds in cells.
Using the technique described by Kandutsch and Chen in the article cited in the previous example, the concentrations of various 15-oxygenated sterols required to reduce the levels of activity of HMG-CoA reductase by 50% was determined in the cells of the L cells in culture and of the primary cultures of liver cells.

Row | SMILES | inhibitory action on the synthesis of sterols (in words) [1] | inhibitory action on the synthesis of sterols (in words) [2] | plasma cholesterol-lowering effect in mice (in words) (plasma cholesterol) | Serum Cholesterol (Mean ± S.E.M.) (serum cholesterol; day 0 (initial)) [mg per 100 ml] | Serum Cholesterol (Mean ± S.E.M.) (serum cholesterol; day 3) [mg per 100 ml] | Serum Cholesterol (Mean ± S.E.M.) (serum cholesterol; day 6) [mg per 100 ml] | Serum Cholesterol (Mean ± S.E.M.) (serum cholesterol; day 9) [mg per 100 ml] | Serum Cholesterol (Mean ± S.E.M.) (serum cholesterol; day 12) [mg per 100 ml] | decrease in serum cholesterol levels (in words) (serum cholesterol) | % Reduction of serum cholesterol (Mean ± S.E.M.) (serum cholesterol; day 3) [%] | % Reduction of serum cholesterol (Mean ± S.E.M.) (serum cholesterol; day 6) [%] | % Reduction of serum cholesterol (Mean ± S.E.M.) (serum cholesterol; day 9) [%] | % Reduction of serum cholesterol (Mean ± S.E.M.) (serum cholesterol; day 12) [%] | average percentage weight gain (mean±S.E.M.) [3] [%] | differences in growth versus vehicle-treated rats (in words) [3] | difference of liver weights from triolein-treated rats (in words) (liver) | liver weight (mean, S.E.M.) (liver) [g] | liver weight as percentage of total body weight (mean, S.E.M.) (liver) [%] | IC50 [4] [µM] | other results
1 | C[C@H](CCCC(C)(C)O)[C@H]1CC[C@H]2[C@@H]3CC=C4C[C@@H](O)CC[C@]4(C)[C@H]3CC[C@]12C [Cholest-5-en-3β,25-diol] | strong inhibitory action | strong inhibitory action | no significant plasma cholesterol-lowering effect in mice |  |  |  |  |  |  |  |  |  |  |  |  |  |  |  |  | IC50 ([1]; L cell cultures, as reported by Kandutsch and Chen, read-out: Concentrations Required for 50% Inhibition of Sterol Synthesis): 0.07 µM; IC50 ([2]; liver cells, read-out: lowest previously reported concentration for 50% inhibition of sterol synthesis): 1 µM; IC50 ([2]; primary cultures of liver cells, as reported by Kandutsch and Chen, read-out: Concentrations Required for 50% Inhibition of Sterol Synthesis): 1 µM
2 | CC(C)CCC[C@@H](C)[C@H]1CC[C@H]2[C@@H]3C(=O)C=C4C[C@@H](O)CC[C@]4(C)[C@H]3CC[C@]12C [7-ketocholesterol] | strong inhibitory action | strong inhibitory action | no significant plasma cholesterol-lowering effect in mice |  |  |  |  |  |  |  |  |  |  |  |  |  |  |  |  | 
3 | CC(C)CCC[C@@H](C)[C@H]1CC(=O)C2=C3CC[C@H]4C[C@@H](OC(=O)CCC(=O)O)CC[C@]4(C)[C@H]3CC[C@@]21C [3β-hemisuccinoyloxy-5α-cholest-8(14)-en-15-one] |  |  |  | 89.1 ± 2.6 | 78.6 ± 2.4 | 72.5 ± 1.9 | 72.3 ± 1.6 | 58.8 ± 2.8 | significant decreases in serum cholesterol levels | 13.5 ± 4.4 | 18.1 ± 4.1 | 18.4 ± 3.5 | 33.9 ± 2.9 | 40.7±1.6 | no significant differences in the growth | no significant difference | 10.6 | 4.36 | 3.2 | IC50 (HMG-CoA reductase): 3 µM
4 | CCCCCCCCCCCCCCCC(=O)O[C@H]1CC[C@@]2(C)[C@@H](CCC3=C4C(=O)C[C@H]([C@H](C)CCCC(C)C)[C@@]4(C)CC[C@@H]32)C1 [3β-hexadecanoyloxy-5α-cholest-8(14)-en-15-one] |  |  |  | 91.6 ± 2.6 | 74.9 ± 3.9 | 75.8 ± 5.0 | 77.9 ± 5.9 | 61.4 ± 3.9 | significant decreases in serum cholesterol levels | 18.2 ± 3.3 | 15.7 ± 4.4 | 14.5 ± 2.9 | 33.2 ± 2.7 | 40.5±4.6 | no significant differences in the growth | differed | 11.4 | 4.53 | > 16 | 
